Reference: patent publication US5663335A, “Immunosuppressive compounds and methods” (priority 1996, dated 1997)
Entries after “also recorded” stand apart in the source; their conditions may differ. Structures can show the parent of a compound that is named as a salt.

How the values were obtained:
[1] = system: rat heart allograft rejection (Brown Norway donor, Lewis recipient); assay: Heterotopic cardiac allograft survival (heart transplantation model); format: in vivo; settings: for mean survival time: intraperitoneal, daily, day -1 to day 14; for mean survival time compared with underivatized triptolide: equimolar doses: YM-273 0.40 mg/kg, YM-274 0.33 mg/kg, T10 0.25 mg/kg, i.p.
Excerpt: Treatment of transplantation rejection, in accordance with the invention, is illustrated for rejection of an allograft by the heart transplantation model used in Example 14. The method involves a well-characterized rat model system (Oho and Lindsey, 1969) in which a transplanted heart is attached to the abdominal great vessels of an allogeneic recipient animal, and the viability of the transplanted heart is gauged by the heart's ability to beat in the recipient animal.
In one study, the animals were administered by intraperitoneal injections, from one day preceding to 14 days following heart transplantation, either control solution (5% ethanol, 10 ml/kg), triptolide (designated as T10), or with two concentrations each of YM-273 and YM-274. There were three animals in each group, except for the control group in which five animals were used.
Heterotopic whole heart transplantation was performed according to the standard method (Oho and Lindsey, 1969). The donors (Brown Norway rats, 200-255 g, Charles River, Wilmington, Mass.) and recipients (Adult male Lewis rats, 225-275 g, Charles River) were anesthetized with sodium pentobarbital (40 mg/kg). Following adequate donor anticoagulation using heparin, the heart graft was removed and stored at 4° C. in PhysioSol Irrigation Solution (Abbott Laboratories, N. Chicago, Ill.). The ascending aorta and pulmonary artery were transected, and the vena cava and pulmonary veins were ligated. […] The cold ischemic time of all the cardiac grafts was less than 45 minutes. Graft heartbeat was monitored by abdominal palpation. The period of functional graft survival was measured as the number of days during which cardiac graft contractions could be detected by abdominal palpation. Results were confirmed by direct visualization at laparotomy.
Heart transplant recipient animals prepared as described above (3-5 animals/group) were treated with (i) control solution (5% ethanol, 10 ml/kg), (ii) YM-273 at 0.10 mg/kg and 0.40 mg/kg (FIG. 5A), (iii) YM-274 at 0.084 and 0.33 mg/kg (FIG. 5B), and (iv) and T10 (triptolide) 0.25 mg/kg (FIG. 6). In addition to showing the results for T10, FIG. 6 repeats the results from FIGS. 5A-5B for YM-273 and YM-274 at 0.40 and 0.33 mg/kg, respectively, such that their concentrations were equimolar relative to T10. All compounds were administered intraperitoneally. Treatment started on the day prior to surgery and continuing daily until postoperative day 14, or until the end of allograft survival.

[2] = Stability in water (D2O solution, 1H NMR); format: physicochemical; settings: 3 mg/ml, room temperature, Succinate Sodium Salt
Method: Sodium triptolide succinate, designated YM-274, was dissolved in D2 O, and the aqueous solution was stored at room temperature.
A solution of sodium triptolide succinate (YM-274) in D2 O was prepared at a concentration of 3 mg/ml and stored at room temperature. The solution was analyzed by ^1 H NMR at intervals of 1, 3, 5, 15, 45, 90, 180 minutes; 1, 7, 14 days; and 1, 2, 3, and 5 months.

[3] = Cytotoxicity by MTT assay, reported with the IL-1 assay (Table I); format: cell-based; settings: mouse, thymocytes, cytotoxic when toxicity greater than 25%
Method: Potential cytotoxicity of the test samples was assessed by the measurement of their effect on the reduction of MTT (3-[4,5-Dimethylthiazole-2-yl]-2,5-diphenyltetrazolium bromide) by cultured cells. MTT, a yellow-colored compound, is reduced by mitochondrial enzymes to form the purple crystalline reduction product formazane, providing an index of cellular respiration on viable cells as well as a sensitive assay for cytotoxicity (Mossmann, 1983).
The cytotoxicity was assessed in cultured human PBMC and mouse thymocytes. A stock solution of MTT (Sigma) at 5 mg/ml in phosphate buffered saline, pH 7.4, was prepared and stored in the dark at 4° C. PBMCs or thymocytes were cultured with various concentrations of test samples in flatbottom 96-well tissue culture plates (Costar) under the same conditions as those described above, but the stimulants (X-35 or IL-1+PHA) were replaced by appropriate medium. Untreated cells with medium alone and without the test samples were used as controls. After incubation for 21 hours, 25 μl of MTT solution was added to each well. After an additional three hours of incubation, the experiment was terminated by addition of a solution of 10% sodium dodecyl sulfate in 0.01N HCl. Following overnight incubation at 37° C. to solubilize the formazane crystals, optical density was determined at 570-650 nm in microplate reader. […]

[4] = Stability in blood serum (TLC); format: in vitro ADME; settings: rat serum, 37° C; for stability in serum, 3 to 5 minutes: first 3 to 5 minutes
Method: The stability of triptolide succinate in blood serum was determined as detailed in Example 10B. In this study, a solution of triptolide succinate (YM-262, free acid) in DMSO was mixed with rat serum and incubated at 37° C. The mixture was assayed periodically by thin layer chromatography (TLC) to follow the hydrolysis of the triptolide succinate over time.
A solution of triptolide succinate (free acid; YM-262) in DMSO was made at a concentration of 25 mg/ml, and 0.1 ml of this solution was mixed with 0.5 ml of rat serum. The mixture was incubated at 37° C. Aliquots of the mixture were taken at 1, 3, 5, 15, 45 minutes and 18 hours and analyzed by thin layer chromatography (TLC). The TLC plates were developed in 1:5 CH2 CI2 /Et2 O. After development, the plates were treated with iodine vapor and examined under a UV lamp. Triptolide and triptolide succinate were used as reference compounds (Rf =0.60), and 0.45, respectively).

Compound: CC(C)C12OC1C1OC13C1(C)CCC4=C(COC4=O)C1CC1OC13C2OC(=O)CCC(=O)O (stereo not drawn) [YM-274, Triptolide Succinate Sodium Salt]
- mean survival time ([1]; 0.0837 mg/kg): 10 days
- mean survival time compared with underivatized triptolide ([1]; Succinate Sodium Salt): substantially better
- stability in D2O, five months ([2]; five months): Some decomposition was apparent after 5 months; also recorded: some decomposition was observed
- stability in D2O, up to three months ([2]; three months): no appreciable change in the NMR spectrum during the first three months; also recorded: unchanged after three months in solution

Compound: CC(C)C12OC1C1OC13C1(C)CCC4=C(COC4=O)C1CC1OC13C2OC(=O)CCC(=O)O (stereo not drawn) [YM-273, Triptolide Succinate Tris Salt]
- mean survival time ([1]; 0.1 mg/kg): 7 days
- mean survival time ([1]; 0.4 mg/kg): 24 days
- mean survival time compared with underivatized triptolide [1]: somewhat better

Compound: CC(C)C12OC1C1OC13C1(C)CCC4=C(COC4=O)C1CC1OC13C2OC(=O)CCC(=O)O (stereo not drawn) [YM-262, Triptolide Succinate]
- MCC [3]: > 12.5 µg/mL
- time for hydrolysis of the triptolide ester to free triptolide in serum [4]: less than an hour
- stability in serum, 15 minutes ([4]; 15 minutes): the triptolide succinate spot was gone
- stability in serum, 3 to 5 minutes [4]: most of the triptolide succinate remained
- stability in serum, 3 to 5 minutes ([4]; listed as triptolide succinate): only triptolide succinate was detected by TLC
